The source of these data is patent publication US10653688B2, “6-(6-membered heteroaryl and aryl)isoquinolin-3-yl carboxamides and preparation and use thereof” (Samumed, LLC, priority 2017, dated 2020).

In general, EC50 refers to the concentration at which the effect is half-maximal. A word on the inhibition: it is the change of the read-out against control, counted positive when it falls.

For one test, the target named is recombinant GSK3β kinase (Homo sapiens (Human), UniProt P49841). Kind of test: GSK3β kinase assay (Ser/Thr 09 peptide Z-lyte, FRET).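 Note: FRET read-out as coumarin over fluorescein emission ratio, compounds incubated one hour at room temperature, IC50 from dose-response curve fit.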 Type of test: biochemical. The conditions noted are these: GSK3β kinase; head says EC50, method says IC50; ATP 46 μM.
Sequence of recombinant GSK3β kinase (P49841 whole entry): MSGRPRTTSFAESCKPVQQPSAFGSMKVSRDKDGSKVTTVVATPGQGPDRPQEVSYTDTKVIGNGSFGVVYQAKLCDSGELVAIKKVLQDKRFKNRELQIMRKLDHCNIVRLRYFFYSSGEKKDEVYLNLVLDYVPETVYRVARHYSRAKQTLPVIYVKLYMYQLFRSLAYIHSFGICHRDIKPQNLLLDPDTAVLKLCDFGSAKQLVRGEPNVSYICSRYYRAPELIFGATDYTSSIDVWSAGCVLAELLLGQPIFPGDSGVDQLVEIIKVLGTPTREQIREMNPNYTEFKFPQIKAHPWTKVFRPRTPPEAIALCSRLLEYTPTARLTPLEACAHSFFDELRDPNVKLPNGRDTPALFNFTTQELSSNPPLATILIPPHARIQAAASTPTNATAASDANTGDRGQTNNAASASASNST
The test system of test [1] is IL-6 in human peripheral blood mononuclear cells (huPBMCs). Description: IL-6 inhibition in LPS-stimulated human peripheral blood mononuclear cells (HTRF). Type of test: cell-based. The conditions noted are these: Homo sapiens, PBMC; for EC50: LPS 50 ng/mL, 22 hours, IL-6 HTRF; for inhibition at 10 µM: read-out: percent inhibition at 10 μM (given for EC50 >10 μM), LPS, IL-6, 10 μM. The protocol:
Human Peripheral Blood Mononuclear Cells:
Fresh Normal PB MNC (Catalog # PB001, AllCells, Alameda, Calif.) were shipped overnight at 4° C. and resuspended in Roswell Park Memorial Institute (RPMI) 1640 Medium, with GlutaMAX Supplement (Catalog #61870127, ThermoFisher Scientific, Waltham, Mass.) supplemented with 1% Penicillin-Streptomycin (Catalog #15140163, ThermoFisher Scientific, Waltham, Mass.) and 1% fetal bovine serum (FBS) (Catalog #16140089, ThermoFisher Scientific, Waltham, Mass.) assay media.
Fresh normal human peripheral blood mononuclear cells (huPBMCs) were resuspended in 1% FBS-RPMI assay media with 1% Penicillin-Streptomycin 1% to a cell concentration of 1×10e6 cells/mL. […] 50 ng/mL of Lipopolysaccharides from Escherichia coli 0111:B4 (Catalog # L5293-2ML, Sigma-Aldrich, St. Louis, Mo.) was added after 2 hours and cells were incubated for another 22 hours at 37° C.-5% CO2. After 22 hour incubation, a mixture of anti-IL6 XL665 and anti-IL-6 Cryptate diluted in reconstitution buffer (Catalog #62IL6PEC, Cisbio Inc., Bedford, Mass.) was added to each well. Following incubation for 3 hours at room temperature, Homogeneous Time-Resolved Fluorescence (HTRF) was measured using the Envision (Perkin Elmer, Shelton, Conn.) at 665 nm and […]. The ratio of fluorescence at 665 nm to 620 nm was used as a readout for IL-6 quantification. All samples were processed in duplicate. Readings were normalized to DMSO treated cells and normalized activities were utilized for EC50 calculations. EC50 was determined using software generated by Dotmatics Limited (Windhill Bishops Stortford Herts, UK) using the Levenberg-Marquardt 4 parameter fitting procedure with finite different gradients.
In general terms: Time-resolved FRET reads energy transfer from a long-lived donor to a nearby acceptor.

Test [2] relates to SW480 colon carcinoma cells. Description: Cell viability assay (CellTiter-Glo). Type of test: cell-based, human. Particulars: Homo sapiens; for EC50: 96 h, four days, CellTiter-Glo; for inhibition at 10 µM: read-out: percent inhibition at 10 μM (given for EC50 >10 μM), 10 μM. The procedure:
SW480 colon carcinoma cells were transduced with a lentiviral vector expressing luciferase with a human Sp5 promoter consisting of a sequence of eight TCF/LEF binding sites. SW480 cells stably expressing the Sp5-Luc reporter gene and a hygromycin resistance gene were selected by treatment with 150 μg/mL of hygromycin for 7 days. These stably transduced SW480 cells were expanded in cell culture and used for all further screening activities.
For the Cell Viability Assays, the cells were plated at 2,000 cells/well in 384-well plates with a DMEM medium containing 1% fetal bovine serum, and 1% Penicillin-Streptomycin and incubated for […] at 37° C. and 5% CO2. Eight replicates of DMSO-treated cells served as controls and cells treated with compound were performed in duplicate.
After incubation, 10 μL of CellTiter-Glo (Promega) was added to each well allowed to incubate for approximately 12 minutes. This reagent “results in cell lysis and generation of a luminescent signal proportional to the amount of ATP present. The amount of ATP is directly proportional to the number of cells present in culture, in agreement with previous reports. The CellTiter-Glo Assay generates a “glow-type” luminescent signal, produced by the luciferase reaction (Promega.com)”.
Background: In ATP-based viability assays light output follows the ATP content of the culture.

Test [3] concerns LL29 cells (primary human fibroblasts derived from IPF patients), α-smooth muscle actin. Kind of test: Inhibition of fibrotic process: TGF-β1-treated primary human fibroblasts, αSMA staining.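 For all read-outs here: controls were TGF-β1-stimulated wells with DMSO vehicle as the positive reference and cells given DMSO alone as the negative reference.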 Type of test: cell-based. Particulars: Homo sapiens, Fibroblast; for EC50: 96 h, TGF-β1 20 ng/mL, 4 days, % cells positive for αSMA; for inhibition at 10 µM: read-out: percent inhibition at 10 μM (given for EC50 >10 μM), TGF-β1, αSMA, 10 μM.

Test [4] has as its system Wnt activity (SW480 colon carcinoma cells stably expressing the Sp5-Luc reporter gene). Description: Wnt activity screening assay (Sp5-Luc reporter gene assay). Type of test: cell-based, human. The conditions noted are these: Homo sapiens; for EC50: 36 to 48 hours. The text has this:
The screening assay for Wnt activity is described as follows. Reporter cell lines can be generated by stably transducing cancer cell lines (e.g., colon cancer) or primary cells (e.g., IEC-6 intestinal cells) with a lentiviral construct that includes a Wnt-responsive promoter driving expression of the firefly luciferase gene.
SW480 colon carcinoma cells were transduced with a lentiviral vector expressing luciferase with a human Sp5 promoter consisting of a sequence of eight TCF/LEF binding sites. SW480 cells stably expressing the Sp5-Luc reporter gene and a hygromycin resistance gene were selected by treatment with 150 μg/mL of hygromycin for 7 days. These stably transduced SW480 cells were expanded in cell culture and used for all further screening activities. […] For Sp5-Luc reporter gene assays, the cells were plated at 4,000 cells/well in 384-well plates with a DMEM medium containing 1% fetal bovine serum, and 1% Penicillin-Streptomycin and incubated for 36 to 48 hours at 37° C. and 5% CO2. Following incubation, 15 μl of BriteLite Plus luminescence reagent (Perkin Elmer) was added to each well of the 384-well assay plates. The plates were placed on an orbital shaker for 2 min and then luminescence was quantified using the Envision (Perkin Elmer) plate reader. Readings were normalized to DMSO only treated cells, and normalized activities were utilized for EC50 calculations using the dose-response log (inhibitor) vs. response-variable slope (four parameters) nonlinear regression feature available in GraphPad Prism 5.0 (or Dotmatics).

Test [5] deals with recombinant DYRK1A kinase (Homo sapiens (Human), UniProt Q13627). Description: DYRK1A kinase assay (Ser/Thr 18 peptide Z-lyte, FRET). The conditions noted are these: DYRK1A kinase; head says EC50, method says IC50; ATP 30 μM.
Experimental: Each compound was dissolved in DMSO as a 10 mM stock and used to prepare compound source plates.
This is a non-radioactive assay using fluorescence resonance energy transfer (FRET) between coumarin and fluorescein to detect kinase activity which is represented as a ratio of coumarin emission/fluorescein emission.
The mixture was allowed to incubate with the representative compounds for one hour at room temperature. All reactions were performed in duplicate. Unphosphorylated (“0% Control”) and phosphorylated (“100% control”) forms of Ser/Thr 18 served as control reactions. Additionally, an 11-point dose-response curve of Staurosporine (luM top) was run to serve as a positive compound control.
After incubation, Development Reagent A was diluted in Development Buffer then added to the reaction and allowed to further incubate for one hour at room temperature.
Dose-response curves were generated and inhibitory concentration (IC50) values were calculated using non-linear regression curve fit in the Dotmatics' Studies Software (Bishops Stortford, UK).

Bounds are passed on as bounds.

In the case of `CNC(=O)c1cncc(-c2ccc3cnc(NC(=O)c4ccnc(N5CCN(C)CC5)c4)cc3c2)c1` [Compound 59, N-methyl-5-(3-(2-(4-methylpiperazin-1-yl)isonicotinamido)isoquinolin-6-yl)nicotinamide], the EC50 was above 10 µM on recombinant GSK3β kinase; above 10 µM in test [1]; 2.32 µM in test [2]; 0.705 µM in test [3]; 0.866 µM in test [4]; 0.006 µM in test [5]. Moreover, the inhibition at 10 µM in test [1] is 4.7%.
For the compound `CN1CCN(c2cc(C(=O)Nc3cc4cc(-c5ccc(N(C)C)nc5)ccc4cn3)ccn2)CC1` [Compound 49, N-(6-(6-(Dimethylamino)pyridin-3-yl)isoquinolin-3-yl)-2-(4-methylpiperazin-1-yl)isonicotinamide], the concentration for a half-maximal effect (EC50) was above 10 µM on recombinant GSK3β kinase; above 10 µM in test [1]; above 10 µM in test [2]; above 10 µM in test [3]; above 10 µM in test [4]; 0.904 µM in test [5]. In addition, the figures for the inhibition at 10 µM in test [1], in test [2] and in test [3] were 0%, 37.1% and 33.5%, respectively.
For `CN1CCC(Nc2cncc(-c3ccc4cnc(NC(=O)c5ccc(F)cc5)cc4c3)c2)CC1` [Compound 46, 4-Fluoro-N-(6-(5-((1-methylpiperidin-4-yl)amino)pyridin-3-yl)isoquinolin-3-yl)benzamide], the EC50 stood at 7.09 µM on recombinant GSK3β kinase; 1.38 µM in test [1]; 4.25 µM in test [2]; 0.682 µM in test [3]; 4.41 µM in test [4]; 0.003 µM in test [5].
Take `CN1CCC(F)(C(=O)Nc2cc3cc(-c4cnccn4)ccc3cn2)CC1` [Compound 76, 4-Fluoro-1-methyl-N-(6-(pyrazin-2-yl)isoquinolin-3-yl)piperidine-4-carboxamide]: the EC50 on recombinant GSK3β kinase was above 10 µM; in test [1], above 10 µM; in test [2] it was above 10 µM; in test [3], above 10 µM; in test [4], above 10 µM; in test [5] it was 0.258 µM. Besides, the inhibition at 10 µM in test [1] was determined as 1.6%; in test [2] it was 17.5%; in test [3] it was 13.1%; in test [4] (read-out: percent inhibition at 10 μM (given for EC50 >10 μM), 10 μM), 15.7%.
As for `CC(C)N1CCN(c2cc(C(=O)Nc3cc4cc(-c5cncc(NC(C)(C)C)n5)ccc4cn3)ccn2)CC1` [Compound 101, N-(6-(6-(tert-Butylamino)pyrazin-2-yl)isoquinolin-3-yl)-2-(4-isopropylpiperazin-1-yl)isonicotinamide], the EC50 on recombinant GSK3β kinase is above 10 µM; in test [1], 0.26 µM; in test [2], 0.061 µM; in test [3] it was 0.046 µM; in test [4] it was 0.042 µM; in test [5], 0.004 µM.
Turning to `CC(C)Nc1cncc(-c2ccc3cnc(NC(=O)c4cccc(C5CCN(C)CC5)c4)cc3c2)c1` [Compound 42, N-(6-(5-(Isopropylamino)pyridin-3-yl)isoquinolin-3-yl)-3-(1-methylpiperidin-4-yl)benzamide], the EC50 on recombinant GSK3β kinase was above 10 µM; in test [1] it was 1.1 µM; in test [2], 0.491 µM; in test [3], 0.631 µM; in test [4], 0.403 µM; in test [5] it was 0.003 µM.
As to `CN1CCN(c2cc(C(=O)Nc3cc4cc(-c5cnc6[nH]ccc6c5)ccc4cn3)ccn2)CC1` [Compound 129, N-(6-(1H-Pyrrolo[2,3-b]pyridin-5-yl)isoquinolin-3-yl)-2-(4-methylpiperazin-1-yl)isonicotinamide], the EC50 at recombinant GSK3β kinase is above 10 µM; in test [1] it was 3.36 µM; in test [2] it was 1.17 µM; in test [3], 0.699 µM; in test [4] it was 1.37 µM; in test [5] it was 0.018 µM.
Take `CC(C)Nc1cncc(-c2ccc3cnc(NC(=O)C4CCN(C(C)C)CC4)cc3c2)n1` [Compound 90, 1-isopropyl-N-(6-(6-(isopropylamino)pyrazin-2-yl)isoquinolin-3-yl)piperidine-4-carboxamide]: the EC50 at recombinant GSK3β kinase is 0.01 µM; in test [1], 0.463 µM; in test [2], 0.465 µM; in test [3], 0.037 µM; in test [4], 0.139 µM; in test [5], 0.001 µM.
For `CC(C)Nc1cncc(-c2ccc3cnc(NC(=O)c4cccc(C5CCNCC5)c4)cc3c2)n1` [Compound 92, N-(6-(6-(Isopropylamino)pyrazin-2-yl)isoquinolin-3-yl)-3-(piperidin-4-yl) benzamide], the EC50 amounted to 3.37 µM on recombinant GSK3β kinase; 0.374 µM in test [1]; 0.235 µM in test [2]; 3.22 µM in test [3]; 0.142 µM in test [4]; 0.009 µM in test [5].
`O=C(Nc1cc2cc(-c3cncc(NC4CCNCC4)n3)ccc2cn1)C1CC(F)(F)C1` [Compound 106, 3,3-Difluoro-N-(6-(6-(piperidin-4-ylamino)pyrazin-2-yl)isoquinolin-3-yl) cyclobutane-1-carboxamide]: the EC50 at recombinant GSK3β kinase came to 0.05 µM; in test [1] it was 0.369 µM; in test [2] it was 8.42 µM; in test [3], 0.027 µM; in test [4], 0.381 µM; in test [5], 0.001 µM.
For `CN1CCN(c2cc(C(=O)Nc3cc4cc(-c5cc(N)cc(F)c5)ccc4cn3)ccn2)CC1` [Compound 1, N-(6-(3-Amino-5-fluorophenyl)isoquinolin-3-yl)-2-(4-methylpiperazin-1-yl) isonicotinamide], the EC50 is above 10 µM at recombinant GSK3β kinase; 7.16 µM in test [1]; 5.86 µM in test [2]; 2.3 µM in test [3]; 4.01 µM in test [4]; 0.075 µM in test [5].
Turning to `O=C(Nc1cc2cc(-c3cncc(NCC4(F)CNC4)n3)ccc2cn1)c1ccc(F)cc1` [Compound 104, 4-fluoro-N-(6-(6-(((3-Fluoroazetidin-3-yl)methyl)amino)pyrazin-2-yl)isoquinolin-3-yl)benzamide], the EC50 turned out to be 4.39 µM on recombinant GSK3β kinase; 1.17 µM in test [1]; 0.119 µM in test [2]; 0.284 µM in test [3]; 0.063 µM in test [4]; 0.001 µM in test [5].
